According to US7446092B2, “Glycogen synthase kinase-3 inhibitors” (Tel Aviv University Future Technology Development L.P., priority 2002, dated 2008):
Blank lines part the entries; values can stand above or below the compound they belong to. Square brackets hold non-standard residues; d marks the D form. Ends that are not written are not given here. Peptide text beside a SMILES is read from it. * marks the point of attachment. pY = N[C@@H](Cc1ccc(OP(=O)(O)O)cc1)C(=O)O; Myristoyl = CCCCCCCCCCCCCC(=O)*; pS = N[C@@H](COP(=O)(O)O)C(=O)O

Experiments:
[1] = biological target: GSK-3β (Oryctolagus cuniculus, UniProt A0A5F9DUX8); assay: In vitro GSK-3 inhibition assay (phosphorylation of PGS-1 peptide substrate); format: biochemical, rabbit; details: for Inhibitor functionality: GSK-3 inhibitor; for GSK-3 inhibition (in words): in vitro, cpL803-mts tested at 0-300 μM
Method: In vitro inhibition assays: Purified recombinant rabbit GSK-3β (Eldar-Finkelman et al., 1996) was incubated with peptide substrate PGS-1 ([…](p)EDEEE) (SEQ ID NO:15) and with a peptide inhibitor at indicated concentrations. The reaction mixture included Tris 50 mM (pH=7.3), 10 mM MgAc, ^32P[γ-ATP] (100 μM), 0.01% β-mercaptoethanol, and was incubated for 10 minutes at 30° C. Reactions were spotted on phosphocellulose paper (p81), washed with 100 mM phosphoric acid, and counted for radioactivity (as described in Eldar-Finkelman et al., 1996).

[2] = biological target: T1, Cdc2 (Homo sapiens, UniProt P06493); assay: Effect of L803 on Cdc2 activity (histone H1 substrate); format: biochemical; details: L803 200 μM
T1 construct: purchased New England BioLabs (Beverly, Mass.)
Method: The effect of L803 (200 μM) on other protein kinases was tested by incubating Cdc2 (1 unit) with a reaction mixture similar to that described hereinabove and containing histone H1 substrate (5 μg). The reactions were boiled with SDS sample buffer, separated on gel electrophoresis and autoradiographed.

[3] = Glucose tolerance test in fasted C57Bl/6J mice; format: in vivo; details: vs control peptide
Method: Glucose tolerance tests: Glucose tolerance tests were performed in overnight fasted C57Bl/6J mice (12 hours). L803-mts or LE803-mts were administrated intraperitoneally (i.p.) to mice (400 nmol peptide), glucose (1 gram/kg) was injected i.p. one hour thereafter and blood samples were collected from tail vein at various time points. Blood glucose levels were immediately measured by Sugar Accutrend Sensor,(Roche, Germany)).

[4] = tested on: β-catenin; assay: β-catenin levels in mouse hippocampus extracts (Western blot); format: in vivo
Method: (§1) Forced Swimming Test (FST): C57BL/6J mice were housed in individual cages with free access to water in a temperature-controlled facility with a 12 hours light/dark cycle. Animals at age 14-16 weeks were used, and each experimental group consisted of randomly chosen 10-20 mice. At day one, mice were subjected to pre-FST (see below). At day two, mice were anesthetized with halothane (inhalation) and were unilaterally intracerebroventricularly injected (i.c.v., 1 μl of 25 mM stock solution) with L803-mts or a scrambled control peptide (cpL803-mts). Animals were subjected to FST once 1, 3, and 12 hours after reagents were administrated. The FST procedure used was similar to that initially described by Porsolt et al. (1977). Briefly, animals were placed at day one in a large cylinder (30 cm×45 cm) of 25° C. water for a 15-minutes period. At day two (24 hours later), treated mice were placed in the cylinder of water for a 6-minutes period. The duration of immobility was monitored during the last 4 minutes of the 6-minute test. Immobility period was defined as the time spent by the animal floating in the water without struggling and making only those movements necessary to keep its head above the water. All testing took place between 11:00 and 15:00. After completion the FST, mice were scarified, and hippocampuses were removed, frozen in liquid nitrogen, and stored at −80° C. Animal care followed the institutional animal care and used committee.
Hippocampus extracts: Hippocampus tissue was homogenized with ice cold buffer H (50 mM β-glycerophosphate pH=7.3, 10% glycerol, 1 mM EGTA, 1 mM EDTA, 10 mM NaF, 5 mM NaPPi, 25 μg/ml leupeptin, 25 μg/ml aprotinin, 500 nM microcystine LR and 1% Triton X100). […] Equal amounts of proteins (30 μg) as determined by Bradford analysis (Bradford, […]) were boiled with Laemmli sample buffer and subjected to gel electrophoresis (10% polyacrylamide gel), transferred to nitrocellulose membranes, and immunoblotted with specific monoclonal antibodies for β-catenin (Transduction laboratories, USA).

[5] = Forced swimming test (FST); format: in vivo, C57BL/6J mice; details: vs control-treated animals
Method: as §1

[6] = tested on: glycogen synthase; assay: Glycogen synthase activity in HEK 293 cells; format: cell-based
Source text: Glycogen synthase activity in HEK 293 cells: To test the impact of the conjugates of the present invention in intact cells, the membrane preamble L803 inhibitor L803-mts (N-Myristol-GKEAPPAPPQS(p)P) (SEQ ID NO:16) and two similarly modified respective controls LE803-mts (N-Myristol-GKEAPPAPPQSEP) (SEQ ID NO:17) and LS803-mts (N-Myristol-GKEAPPAPPQSP) (SEQ ID NO:18), in which the phosphorylated serine was replaced with glutamic acid (that usually mimics a phosphorylated group) or a serine residue, respectively, were designed and synthesized.
HEK 293 cells were grown in 10 cm plates with Dulbecco's modified Eagle medium (DMEM) supplemented with 10% fetal calf serum (FCS). On the day of the experiment, cells were incubated with low glucose medium supplemented with 0.5% FCS for 1 hour, followed by the addition of the conjugate L803-mts or its respective controls LE803-mts and LS803-mts at various concentrations, for additional 2.5 hours. A vehicle control of DMSO (0.1% DMSO) was also tested. […] The reactions were then spotted on ET31 (Whatman) papers, washed with 66% ice-cold ethanol, and counted for radioactivity. Glycogen synthase assays were measured in the presence of 0.1 mM glucose-6-phosphate (G6P). […]

[7] = tested on: mouse adipocytes; assay: Glucose uptake in isolated adipocytes; format: cell-based
Method: Glucose uptake in isolated adipocytes: Mice adipocytes were isolated from epididymal fat pad by digestion with 0.8 mg/ml collagenase (Worthington Biochemical) as described previously (Lawrence et al., 1977). Digested fat pads were passed through nylon mesh and cells were washed 3 times with Krebs-bicarbonate buffer (pH=7.4) containing 1% bovine serum albumin (Fraction V, Boehringer Mannheim, Germany), 10 mM HEPES (pH=7.3), 5 mM glucose and 200 nM adenosine. Cells were incubated with L803-mts or LE803-mts at indicated concentrations for 1 hour, followed by addition of 2-deoxy [^3H] glucose (0.5 μci/vial) for 10 minutes. The assay was terminated by centrifugation of cells through dinonylphthalate (ICN, USA). ^3H was thereafter quantitated by liquid scintillation analyzer (Packard). Nonspecific uptake of 2-deoxy-[^3H] glucose was determined by the addition of cytochalasin B (50 μM) 30 minutes prior to the addition of radioactive material.
In another set of experiments, adipocytes were treated with various concentrations of L803-mts 1 hour before addition of sub-optimal concentration of insulin (5 nM). Glucose uptake was determined as described above.

[8] = biological target: T2, GSK-3 (Oryctolagus cuniculus, UniProt G1T8E2); assay: In vitro test of peptides as GSK-3 substrates; format: biochemical, rabbit; details: S2(p) of p9CREB replaced
T2 construct: made in house
T2 sequence (G1T8E2 1-432): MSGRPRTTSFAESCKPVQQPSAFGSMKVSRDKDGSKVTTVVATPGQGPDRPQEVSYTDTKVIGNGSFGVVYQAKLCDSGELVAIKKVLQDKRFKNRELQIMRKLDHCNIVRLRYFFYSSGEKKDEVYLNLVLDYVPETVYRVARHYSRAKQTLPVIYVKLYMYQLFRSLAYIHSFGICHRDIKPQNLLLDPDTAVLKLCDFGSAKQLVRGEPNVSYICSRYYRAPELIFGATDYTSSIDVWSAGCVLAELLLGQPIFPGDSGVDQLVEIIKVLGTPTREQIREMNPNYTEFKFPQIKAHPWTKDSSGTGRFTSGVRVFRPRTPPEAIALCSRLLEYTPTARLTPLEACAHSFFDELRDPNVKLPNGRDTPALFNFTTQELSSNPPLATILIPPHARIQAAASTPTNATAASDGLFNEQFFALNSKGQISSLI

GSK-3β, sequence (A0A5F9DUX8 1-420): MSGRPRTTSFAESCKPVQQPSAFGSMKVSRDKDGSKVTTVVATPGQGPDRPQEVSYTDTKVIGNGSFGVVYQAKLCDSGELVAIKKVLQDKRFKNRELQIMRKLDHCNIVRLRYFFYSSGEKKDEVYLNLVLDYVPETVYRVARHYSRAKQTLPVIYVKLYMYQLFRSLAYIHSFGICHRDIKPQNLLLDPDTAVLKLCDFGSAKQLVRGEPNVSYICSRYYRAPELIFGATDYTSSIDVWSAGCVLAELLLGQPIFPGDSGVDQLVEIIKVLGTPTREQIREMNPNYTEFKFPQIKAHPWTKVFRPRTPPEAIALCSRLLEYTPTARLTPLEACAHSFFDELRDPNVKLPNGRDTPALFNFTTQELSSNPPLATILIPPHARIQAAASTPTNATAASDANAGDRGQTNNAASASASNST
T1 sequence (P06493 whole entry): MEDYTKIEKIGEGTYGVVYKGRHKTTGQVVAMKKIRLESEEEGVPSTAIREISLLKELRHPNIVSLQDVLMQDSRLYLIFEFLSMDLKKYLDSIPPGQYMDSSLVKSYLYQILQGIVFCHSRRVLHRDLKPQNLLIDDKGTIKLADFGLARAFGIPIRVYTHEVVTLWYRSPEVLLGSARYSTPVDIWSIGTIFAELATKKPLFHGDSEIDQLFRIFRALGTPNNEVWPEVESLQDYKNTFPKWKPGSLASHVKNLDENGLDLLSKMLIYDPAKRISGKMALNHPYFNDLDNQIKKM
T1 sequence (P14635 whole entry partner): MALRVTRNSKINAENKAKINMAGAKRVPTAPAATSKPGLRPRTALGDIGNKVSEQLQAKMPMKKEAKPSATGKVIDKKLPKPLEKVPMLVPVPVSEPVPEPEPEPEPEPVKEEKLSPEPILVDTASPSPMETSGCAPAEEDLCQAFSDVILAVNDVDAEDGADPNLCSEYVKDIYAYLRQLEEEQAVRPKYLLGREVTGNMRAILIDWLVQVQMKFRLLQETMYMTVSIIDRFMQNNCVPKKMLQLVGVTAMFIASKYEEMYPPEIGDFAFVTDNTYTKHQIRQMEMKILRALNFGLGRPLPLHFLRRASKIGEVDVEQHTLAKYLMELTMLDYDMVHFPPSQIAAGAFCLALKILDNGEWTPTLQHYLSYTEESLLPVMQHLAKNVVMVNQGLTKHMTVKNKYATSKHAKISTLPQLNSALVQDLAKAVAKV

GSK-3 inhibition (in words) [1]: eliminated the inhibitory capacity
Compound: CC[C@H](C)[C@H](N)C(=O)N[C@@H](CC(C)C)C(=O)N[C@@H](C)C(=O)N[C@@H](CCCNC(=N)N)C(=O)N[C@@H](CCCNC(=N)N)C(=O)N1CCC[C@H]1C(=O)N[C@@H](COP(=O)(O)O)C(=O)N[C@@H](Cc1ccc(O)cc1)C(=O)N[C@@H](CCCNC(=N)N)C(=O)O [Peptide 6, ILARRPS(p)YR] (H-ILARRP[pS]YR-OH)
Inhibitor functionality [1]: * (weak inhibition activity (IC50 > 800 μM))

Compound: C[C@H](NC(=O)[C@H](CCC(=O)O)NC(=O)[C@@H](N)CCCCN)C(=O)N1CCC[C@H]1C(=O)N1CCC[C@H]1C(=O)N[C@@H](C)C(=O)N1CCC[C@H]1C(=O)N1CCC[C@H]1C(=O)N[C@@H](CCC(N)=O)C(=O)N[C@@H](COP(=O)(O)O)C(=O)N1CCC[C@H]1C(=O)O [Peptide 9, KEAPPAPPQS(p)P] (H-KEAPPAPPQ[pS]P-OH; N-terminus and C-terminus assumed)
Inhibition of cdc2 (in words) [2]: not inhibited

Compound: C[C@H](NC(=O)[C@@H]1CCCN1)C(=O)N1CCC[C@H]1C(=O)N1CCC[C@H]1C(=O)N[C@@H](CCC(N)=O)C(=O)N[C@@H](COP(=O)(O)O)C(=O)N1CCC[C@H]1C(=O)O [Peptide 12, PAPPQS(p)P] (H-PAPPQ[pS]P-OH)
Inhibitor functionality [1]: * (weak inhibition activity (IC50 > 800 μM))

Compound: CCCCCCCCCCCCCC(=O)NCC(=O)N[C@@H](CCCCN)C(=O)N[C@@H](CCC(=O)O)C(=O)N[C@@H](C)C(=O)N1CCC[C@H]1C(=O)N1CCC[C@H]1C(=O)N[C@@H](C)C(=O)N1CCC[C@H]1C(=O)N1CCC[C@H]1C(=O)N[C@@H](CCC(N)=O)C(=O)N[C@@H](COP(=O)(O)O)C(=O)N1CCC[C@H]1C(=O)O [Peptide L803-mts, N-Myristol-GKEAPPAPPQS(p)P] (Myristoyl-GKEAPPAPPQ[pS]P-OH; C-terminus assumed)
Reduction in the blood glucose peak and in glucose levels 1 and 2 hours after glucose ([3]; 400 nmol i.p. one hour before glucose 1 gram/kg): 20%
Glucose tolerance (in words) ([3]; 400 nmol i.p.): better glucose tolerance
Increase in β-catenin levels ([4]; 1 hour after i.c.v. L803-mts): 20%
Increase in β-catenin levels ([4]; 3 hours after i.c.v. L803-mts): 30%
Increase in β-catenin levels ([4]; 12 hours post administration): 50%
Shortening of immobility time ([5]; FST 1 hour after i.c.v. injection): 37%±3.7%
Shortening of immobility time ([5]; FST 3 hours after i.c.v. injection): 44%±5.7%
Shortening of immobility time ([5]; FST 12 hours after i.c.v. injection): 16%±0.6%
Concentrations inhibiting endogenous GSK-3 [6]: 10 to 40 µM
Increase of glycogen synthase activity ([6]; 2.5 hours, compared with cells treated with LE803-mts or LS803-mts): 2.5 fold
Effect on insulin-induced glucose uptake (in words) ([7]; L803-mts 1-10 μM followed by sub-optimal insulin (5 nM)): additive effect
Increase of 2-deoxyglucose incorporation ([7]; mouse adipocytes, no insulin, compared with cells treated with LE803-mts or LS803-mts): approximately 2.5 fold

Compound: ILSRPPEYR [Peptide 3]
Phosphorylation by GSK-3 (in words) [8]: eliminated the capacity of GSK-3 to phosphorylate these peptides

Compound: ILSRPPY(p)YR (ILSRPP[pY]YR; also: phosphotyrosine, Y7 or Y8 (written PPY(p)YR)) [Peptide 4]
Phosphorylation by GSK-3 (in words) [8]: eliminated the capacity of GSK-3 to phosphorylate these peptides

GSK-3 inhibition (in words) [1]: inactive inhibitors
Compound: KEEPPAPPQEP [Peptide 11]

GSK-3 inhibition (in words) [1]: inactive inhibitors
Compound: KEEPPAPPQSP [Peptide 10]

GSK-3 inhibition (in words) [1]: do not inhibit
Compound: N-Myristol-GKEAPPAPPQSEP (Myristoyl-GKEAPPAPPQSEP) [LE803-mts, control conjugate, phosphorylated serine replaced with glutamic acid, reference compound]

GSK-3 inhibition (in words) [1]: do not inhibit
Compound: N-Myristol-GKEAPPAPPQSP (Myristoyl-GKEAPPAPPQSP) [LS803-mts, control conjugate, phosphorylated serine replaced with serine, reference compound]

Compound: insulin [reference compound]
Maximum stimulation of glucose uptake by insulin ([7]; mouse adipocytes, insulin 10 nM, data not shown): 3 fold
